The values that follow come from the METLIN SMRT retention time set (Domingo-Almenara et al. 2019).

This series in a line: gradient 5% acetonitrile 3 min, to 50% in 2 min, to 85% in 15 min, held 3 min, 100 µL/min. The following applies: column: Zorbax Extend-C18 2.1 x 50 mm; eluents: water / acetonitrile, 0.1% formic acid. Put shortly:
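Retention time was recorded from adduct peaks, which were picked computationally and each inspected manually. Pure standards ran in mixtures of ~100 molecules on HPLC coupled to a quadrupole time-of-flight mass spectrometer, in positive and negative ionization mode, through a Zorbax Extend-C18 column (2.1 × 50 mm, 1.8 μm) at 100 μL/min. Eluents were water and acetonitrile, each with 0.1% formic acid.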
In turn, `O=C(COc1ccc(F)c(F)c1)N1CCN(c2ncccc2-c2nnc(C3CC3)o2)CC1` yielded an RP-LC retention time of 822 s.
In the case of `COC(=O)[C@@H]1Cc2c([nH]c3ccccc23)C(c2ccccc2C)N1` (stereo partly drawn), the RP-LC retention time is 685 s.
As to `Cc1ccc(NS(=O)(=O)c2cc(-c3nc(C(C)(C)C)cs3)cs2)c(Cl)c1`, the RP-LC retention time worked out at 1320 s.
Under `O=C(Cn1nc2c3cc(Cl)ccc3ncn2c1=O)Nc1ccccc1` stands 718 s; under `Cc1cc(C)c(NC(=O)Cn2cnc3nc(N4CCCC(C(=O)NC5CC5)C4)sc3c2=O)c(C)c1` (stereo not drawn), 723 s.
Turning to `Cc1ccc(NC(=O)N2CCc3cn(C)c4cccc(c34)C2)cc1`, the RP-LC retention time came out at 629 s.
Compound `Cc1ccn2c(=O)cc(CN(C)Cc3ccc(Cl)cc3)nc2c1` displayed an RP-LC retention time of 631 s.
The value for `Cc1ccc(C)c(S(=O)(=O)N2CCC(N3CCN(Cc4ccccc4)C(=O)C3=O)CC2)c1` was 861 s.
In turn, `O=C(Nc1ccccc1F)C1CCN(S(=O)(=O)c2cc(C(=O)N3CCCC3)cs2)CC1` displayed an RP-LC retention time of 790 s.
`CC1(C(=O)NCc2ccc(F)cc2)CCCN(C(=O)NC2CCCCC2)C1` (stereo not drawn): the RP-LC retention time turned out to be 895 s.
The compound `COCCCNC(=O)C1CCN(C2=NS(=O)(=O)C(c3ccc(Cl)cc3)=C2C)CC1` displayed an RP-LC retention time of 748 s.
`Cc1ccc(NC(=O)N2CC(c3nc(CCOCC4CC4)no3)C2)cc1C` returned an RP-LC retention time of 863 s.
With `CCOc1ccc(-c2nc(C3CC(=O)N(c4ccc(OC)cc4)C3)no2)cc1` (stereo not drawn), the RP-LC retention time is 1010 s.
For the compound `CCOC(=O)C1CCN(c2ncnc3c2cnn3-c2cccc(C)c2)CC1`, the RP-LC retention time was determined as 1080 s.
Consider `Cc1cc(-c2cc(S(=O)(=O)N(CCN(C)C)Cc3cccs3)c(C)s2)n[nH]1`, for which the RP-LC retention time was determined as 658 s.
The value for `CC1=C(c2ccc(C)c(C)c2)S(=O)(=O)N=C1N1CCCN(C(=O)C(C)(C)C)CC1` was 903 s.
The value for `COc1cc(OC)c(NC(=O)c2cc3c(=O)oc4ccccc4c3n2C)cc1Cl` was 1030 s.
On to `CCc1noc(C2(NC(=O)COc3ccc(Cl)cc3)CCCCC2)n1`, for which the RP-LC retention time is 1040 s.
`O=C(NCCc1ccccc1)N1[C@H]2CC[C@@H]1c1cncnc1C2` showed an RP-LC retention time of 642 s.
`Cc1nn(CCCC(=O)NCc2ccc3c(c2)OCO3)c(=O)c2nn(-c3ccccc3)c(C)c12` yielded an RP-LC retention time of 704 s.
The value for `Cc1ncsc1CN1CCC(Oc2ccccc2-c2nc(-c3ccccc3)no2)C1` (stereo not drawn) was 732 s; that for `Cc1ccc(C(=O)N2C[C@@H]3C[C@H]2C[C@@H]3NS(C)(=O)=O)s1` was 595 s; that for `COCc1nc2cccnc2n1C1CCN(C(=O)Nc2ccc(Br)c(C)c2)CC1` was 753 s.
Compound `CCCN1C(=O)c2c(C(=O)NCCc3ccccc3C)ncn2CC1(C)C(=O)NCCC(C)C` (stereo not drawn) yielded an RP-LC retention time of 900 s.
For `Cc1nn(CC(=O)N2CCc3ccccc32)c(=O)c2nn(-c3ccccc3)c(C)c12`, the RP-LC retention time came to 1050 s.
The value for `COc1ccc(NC(=O)Cc2c(C)nn(-c3nc(-c4ccc(F)cc4)cs3)c2C)c(OC)c1` was 1160 s; that for `Cc1ccc(CNC(=O)C2CCCN2S(=O)(=O)c2cc3c(cc2C)NC(=O)CO3)cc1` (stereo not drawn) was 777 s.
`O=C(CCn1ccnc1)N1CCC2(CCC(=O)N(CC3CC3)CC2)CC1` yielded an RP-LC retention time of 577 s.
The value for `CCCCC(SC1=Nc2ccccc2C2=NC(Cc3c[nH]c4ccccc34)C(=O)N12)C(=O)OCC` (stereo not drawn) was 1110 s; that for `COC(=O)c1ccc(NC(=O)c2c(OC)cc(=O)n3c2CCCC3)cc1` was 678 s; that for `CCOC(=O)c1c(C)oc2ncnc(Nc3cc(C)ccc3OC)c12` was 1260 s.
With `COc1ccc(-c2nc3cccnc3n2C2CCN(S(=O)(=O)Cc3ccccc3)C2)cc1` (stereo not drawn), the RP-LC retention time was 874 s.
The value for `O=C(c1ccc(Cl)s1)N1CCCC(CCc2nnc(C3CCOCC3)o2)C1` (stereo not drawn) was 790 s; that for `Cc1cc(C(=O)Nc2nnc(-c3cc4ccccc4o3)o2)c(C)o1` was 812 s; that for `CCCCn1cc(S(=O)(=O)Nc2cccc(Cl)c2)c2cccnc21` was 1020 s.
As for `COc1ccccc1-c1noc(C2CCCN2C(=O)Nc2cccc(F)c2)n1` (stereo not drawn), the RP-LC retention time was determined as 894 s.
Consider `CC(C)CCNC(=O)C1CCN(C(=O)c2cc(-c3ccncc3)n[nH]2)CC1`, for which the RP-LC retention time is 591 s.
The compound `CCOc1ccccc1NC(=O)Cc1c(C)nn(-c2nc(-c3ccc(F)cc3)cs2)c1C` registered an RP-LC retention time of 1290 s.
`CCc1cc(C(=O)N2CCN(CC)CC2)nc2cc(-c3ccco3)nn12` registered an RP-LC retention time of 616 s.
In turn, `O=C(CSc1ncnc2c1[nH]c1ccccc12)N1CCc2ccccc2C1` came in with an RP-LC retention time of 842 s.
In turn, `Cc1ccc2c(c1)N(Cc1ccccc1F)N=C(C(=O)N1CCCC1)S2(=O)=O` registered an RP-LC retention time of 885 s.
The value for `Cc1ccc(CNC(=O)C2CCN(Cc3cn(C)c4ccc(Cl)cc34)CC2)cc1` was 733 s; that for `Cc1ccc(-c2nc(-c3ccc4c(c3)nnn4CCN(C)C)no2)cc1F` was 708 s; that for `Cn1nc(-c2nnc(-c3ccccc3F)o2)c2c1CCN(S(=O)(=O)c1cc(F)ccc1F)C2` was 928 s.
Take `Cc1ccc(NC(=O)Cn2cnc3nc(N4CCCC(C(=O)NC(C)C)C4)sc3c2=O)cc1C` (stereo not drawn): the RP-LC retention time was 730 s.
The value for `COCCN1C(=O)c2cccn2CC1CNC(=O)c1cnc(C)cn1` (stereo not drawn) was 610 s; that for `Fc1cccc(-c2nc(-c3ccnc(N4CCOCC4)c3)no2)c1` was 967 s; that for `Cc1ccc2nc3c(c(C(=O)NC(C)C)c2c1)CCC3` was 610 s.
The compound `Cc1nn(-c2ccc(F)cc2)c(C)c1S(=O)(=O)N1CCC(C(=O)Nc2ccccc2F)CC1` returned an RP-LC retention time of 949 s.
For `CC(C)NC(=O)c1nc(N2CCSCC2)c2cnn(C)c2n1`, the RP-LC retention time stood at 705 s.
The compound `Cc1ccc(Nc2c(-c3ccccc3)nc3cc(C)ccn23)cc1` registered an RP-LC retention time of 741 s.
Consider `O=C(NCc1ccccn1)c1nnn(Cc2ccccc2Cl)c1-n1cccc1`, for which the RP-LC retention time is 712 s.
Compound `CCCS(=O)(=O)c1nc2ccc(NS(C)(=O)=O)cc2s1` gave an RP-LC retention time of 755 s.
With `CCc1ccc(Nc2nc(C(=O)NC3CCCC3)nc3ccccc23)cc1`, the RP-LC retention time is 934 s.
`O=C(NCCc1csc(-c2ccccc2)n1)[C@H]1CCCN1S(=O)(=O)c1cccc(Cl)c1`: the RP-LC retention time was determined as 994 s.
The compound `COc1ccc(F)cc1S(=O)(=O)N1CCC2(CC1)NCCCN=C2NC1CCCC1` gave an RP-LC retention time of 607 s.
Under `CCOC(=O)C1CCN(C(=O)C2CCCN(c3nccc(C)n3)C2)CC1` (stereo not drawn) stands 698 s; under `CCCN1C(=O)COc2ccc(-c3noc(-c4cc(OC)c(OC)c(OC)c4)n3)cc21`, 1140 s.
Compound `Cc1ccc(F)c(NC(=O)c2c(O)c3cccnc3n(-c3ccc(F)cc3)c2=O)c1` yielded an RP-LC retention time of 1140 s.
`O=C(NC1CCCCCC1)C1CCCN(C(=O)c2ccc(F)c(F)c2)C1` (stereo not drawn) registered an RP-LC retention time of 856 s.
In turn, `CN(c1ncccc1CNc1nc(Nc2ccc3c(c2)CC(=O)N3)ncc1C(F)(F)F)S(C)(=O)=O` had an RP-LC retention time of 678 s.
Under `Cc1cccc(-c2nc(C3CCN(S(=O)(=O)c4cccc(F)c4)CC3)no2)c1` stands 1170 s; under `CCOC(=O)c1[nH]c(C)c(CCC(=O)N2CCC(C(=O)NC3CC3)CC2)c1C`, 650 s; under `CN(CC(=O)N1CCN(Cc2ccccc2)CC1)S(=O)(=O)c1ccc2c(c1)CCCC(=O)N2`, 600 s.
The value for `O=C1CCc2cc(S(=O)(=O)NCCc3ccc(Cl)cc3)cc3c2N1CCC3` was 903 s.
In turn, `CCC(C)NC(=O)CC1CCN(C(=O)c2[nH]c(C)cc2C)CC1` (stereo not drawn) displayed an RP-LC retention time of 686 s.
Take `O=C(Nc1ccc(F)c(Cl)c1)C1CCc2nc(N3CCOCC3)ncc2C1` (stereo not drawn): the RP-LC retention time was determined as 855 s.
`COC(=O)c1nc(NC(=O)Cn2nc3c(cc2=O)CCCC3)sc1C` showed an RP-LC retention time of 710 s.
In turn, `CN1CCc2ccccc2C1Cc1ccccc1NC(=O)c1sc2ccccc2c1Cl` (stereo not drawn) displayed an RP-LC retention time of 852 s.
For `CCCN(CC1CCOC1)C(=O)Nc1ccccc1Br` (stereo not drawn), the RP-LC retention time was determined as 832 s.
Turning to `O=C(Nc1ccc(N2CCCCCC2)c(C(=O)O)c1)c1cccs1`, the RP-LC retention time was determined as 657 s.
The value for `O=C(c1ccc(OCC2CCCN2C(=O)C2CCCC2)cc1)N1CCOCC1` (stereo not drawn) was 750 s; that for `Cc1oc(C2CCN(S(=O)(=O)c3ccc(F)cc3)CC2)nc1C(=O)N1CCCC1` was 890 s; that for `Cc1ccc(Nc2nc(-c3cc(C)c(C)cc3C)cs2)nc1` was 1010 s.
Compound `Cc1nn(C(C)C(=O)NCCCN2CCc3ccccc3C2)c(=O)c2nn(-c3ccccc3)c(C)c12` (stereo not drawn) gave an RP-LC retention time of 667 s.
Under `Cc1ccn2c(Nc3ccccc3C)c(-c3ccc(N(C)C)cc3)nc2c1` stands 809 s; under `COc1cccc(CNC(=O)Cc2csc3nc(-c4cccc(Br)c4)cn23)c1`, 925 s; under `CCOC(=O)c1noc2nc(C)nc(Nc3ccccc3)c12`, 1010 s.
